Assay results published in patent EP1282725B1, “METHODS OF MODULATING FUNCTIONS OF POLYPEPTIDE GalNAc TRANSFERASES AND OF SCREENING SUBSTANCES THEREFOR” (Glycozym ApS, priority 2000, dated 2001).

Columns and labels:
GalNAc-T4 [1] = assay: Inhibition of the glycosylation dependent (GalNAc-glycopeptide) activity of GalNAc-T4, time-course MALDI-TOF; type: biochemical, human
Procedure: (§1) MALDI-TOF time-course in terminal reactions were performed in reactions of 25 µl containing 2.5 nmol acceptor (glyco)peptide, 40 nmol UDP-GalNAc, and 0.4 µg GalNAc-T4. Sampling of reactions (1 µl) were purified by nano-scale reversed-phase chromatography (Poros R3, PerSeptive Biosystem) and applied directly to the probe with matrix (41). The amount of GalNAc-transferase added was adjusted so that the reaction with the appropriate peptide was near completion in six hours. Reactions were incubated at 37°C in a shaker bath. At times 0, 2 hours, and 16 hours a 1 µl aliquot was taken and purified. Mass spectra were acquired on either Voyager-DE mass spectrometer equipped with delayed extraction (Perseptive Biosystem Inc.). The matrix used was 2,5-dihydroxybenzoic acid (10 mg/ml, Hewlett-Packard) dissolved in a 2:1 mixture of 0.1% trifluoroacetic acid in 30 % aqueous acetonitrile (Rathburn Ltd.).
Quantification of purified proteins was done by Coomassie stained SDS-PAGE and titration of immunoreactivity with the monoclonal antibody, UH6(4G2) (8). […] Wild-type GalNAc-T4 and mutant GalNAc-T4, GalNAc-T4^459H, were analysed with unglycosylated peptides (represented by PSGL-1) or GalNAc glycosylated glycopeptides (represented by GalNAc3TAP25V21) in reactions of 25 µl containing 2.5 nmol acceptor (glyco)peptide, 40 nmol UDP-GalNAc, and 0.4 µg GalNAc-T4. Time-course assays were motioned by MALDI-TOF. Sampling of reactions (1 µl) were purified by nano-scale reversed-phase chromatography (Poros R3, PerSeptive Biosystem) and applied directly to the probe with matrix. Evaluation of inhibition of the glycopeptide specificity of wild-type GalNAc-T4 with free sugars was performed to establish if the lectin domain recognized carbohydrate. […] Further, analysis was performed with 10 mM α-D-GalNAc-1-benzyl, αGlcNAc-benzyl, and fully occupied GalNAc-glycopeptide, GalNAc6TAP25, at 5 mM.

GalNAc-T7 = assay: Inhibition of GalNAc-T7 activity with GalNAc2-3EA2 substrate; type: biochemical, human; conditions: for inhibition of the activity of GalNAc-T7 with GalNAc2-3EA2: 5 mM concentrations; for Activity in the presence of inhibitors: inhibitors 5 mM, GalNAc2-3EA2 substrate, without inhibitor 6.8
Procedure: (§2) Standard reaction mixtures (50 µl final volume) contained 25 mM cocadylate (pH 7.4), 10 mM MnCl2, 0.25% Triton X-100, 200 µM UDP-[^14C]-GalNAc (2,000 cpm/nmol) (Amer-sham), 200-500 µM acceptor peptides. Products were quantified by scintillation counting after chromatography on Dowex-1, octadecyl silica cartridges (Bakerbond), or HPLC (PC3.2/3 or mRPC C2/C18 SC2.1/10 Pharmacia, Smart System). […] Glycopeptides were purified on Supelclean LC-18 columns (1 ml, Supelco), and the number of GalNAc residues incorporated evaluated by MALDI-TOF mass spectrometry. The enzyme sources used were semipurified as previously described by successive sequential ion-exchange chromatographies on Amberlite (IRA95, Sigma) or DEAE Sephacel (Pharmacia), S-Sepharose Fast Flow (Pharmacia), and Mini-S™ (PC 3.2/3, Pharmacia) using the Smart System (Pharmacia) (28). Secreted GalNAc-T4 was obtained from a stably transfected CHO line (CHO/GalNA-T4/21A) (8) grown in roller bottles in HAMS F12 supplemented with 10 % Fetal Bovine Serum. The experiments illustrated in Fig. 1 was performed with recombinant secreted GalNAc-T4 obtained from a stably transfected CHO line (8). Experiments illustrated in Figs. 2 and 3 were performed with secreted GalNAc-T4 expressed in High Five cells grown in serum-free medium (8). Structural analysis of glycopeptides were performed by a combination of PFPA (pentafluoropropionic acid) hydrolysis and MALDI-TOF mass spectrometry as previously described (40). Secreted GalNAc-T7 was obtained from infected High Five™ cells grown in serum-free medium (Invitrogen) in upright roller bottles shaken 140 rpm in waterbaths at 27 °C. GalNAc-T7 was not purified by Mini-S as the yields from cationic chromatography were low due to its low pI (6.4).
GalNAc-T7 activity was analysed with GalNAc glycosylated glycopeptides (represented by GalNAc2-3EA2 (7)) in reactions of 25 µl containing 2.5 nmol acceptor (glyco)peptide, 40 nmol UDP-GalNAc, and purified GalNAc-T7. […] Further, analysis was performed with 10 mM α-D-GalNAc-1-benzyl, αGlcNAc-benzyl, and fully occupied GalNAc-glycopeptide, GalNAc6TAP25, at 5 mM.

GalNAc-T2 [2] = assay: Inhibition of GalNAc-T2 activities with Muc2 acceptor substrate; type: biochemical, human; conditions: for Activity in the presence of inhibitors: inhibitors 230 mM, Muc2 acceptor
Procedure: as §2, with “Products” for “Standard reaction mixtures (50 µl final volume) contained 25 mM cocadylate (pH 7.4), 10 mM MnCl2, 0.25% Triton X-100, 200 µM UDP-[^14C]-GalNAc (2,000 cpm/nmol) (Amer-sham), 200-500 µM acceptor peptides. Products”, “Mini-S^TM” for “Mini-S™”, “([…])” for “(CHO/GalNA-T4/21A)”, “Five^TM” for “Five™”, “(6.4). […] Galactosyl transferring activities of GalNAc-T1, -T2, and -T3, were assayed with a panel of acceptor peptides in standard reaction mixtures containing 100 μM UDP-Gal instead of UDP-GalNAc.” for “(6.4).”

GalNAc-T3 = assay: Inhibition of GalNAc-T3 activities with EA2 acceptor substrate; type: biochemical, human; conditions: for Activity in the presence of inhibitors: inhibitors 230 mM, EA2 acceptor
Procedure: as §2, with “Products” for “Standard reaction mixtures (50 µl final volume) contained 25 mM cocadylate (pH 7.4), 10 mM MnCl2, 0.25% Triton X-100, 200 µM UDP-[^14C]-GalNAc (2,000 cpm/nmol) (Amer-sham), 200-500 µM acceptor peptides. Products”, “Mini-S^TM” for “Mini-S™”, “([…])” for “(CHO/GalNA-T4/21A)”, “Five^TM” for “Five™”, “(6.4). […] Galactosyl transferring activities of GalNAc-T1, -T2, and -T3, were assayed with a panel of acceptor peptides in standard reaction mixtures containing 100 μM UDP-Gal instead of UDP-GalNAc.” for “(6.4).”

[3] = tested on: GalNAc-T4^459D or -T4^459H; assay: Glycosylation independent activity of GalNAc-T4 wild-type and lectin mutant with naked peptides, MALDI-TOF; type: biochemical, human; conditions: naked peptides (PSGL-1); free sugars
Procedure: as §1
Quantification of purified proteins was done by Coomassie stained SDS-PAGE and titration of immunoreactivity with the monoclonal antibody, UH6(4G2) (8). […] Wild-type GalNAc-T4 and mutant GalNAc-T4, GalNAc-T4^459H, were analysed with unglycosylated peptides (represented by PSGL-1) or GalNAc glycosylated glycopeptides (represented by GalNAc3TAP25V21) in reactions of 25 µl containing 2.5 nmol acceptor (glyco)peptide, 40 nmol UDP-GalNAc, and 0.4 µg GalNAc-T4. […]

GalNAc-T2 [4] = assay: Direct binding to free GalNAc, conventional binding assays; set-up: species or system human
GalNAc-T4 [5] = assay: as above; set-up: species or system human
[6] = […] free sugars, GalNAc3TAP25V21 glycopeptide substrate
[7] = donor UDP-Gal, without inhibitor 90
[8] = donor UDP-GalNAc, without inhibitor 340
[9] = donor UDP-Gal, without inhibitor 6.3
[10] = donor UDP-GalNAc, without inhibitor 34

Row | SMILES | inhibition of the activity of GalNAc-T7 with GalNAc2-3EA2 (GalNAc-T7) | Activity in the presence of inhibitors (GalNAc-T7) | inhibition of the glycosylation dependent specificity of GalNAc-T4 (GalNAc-T4 [1]; [6]) | Activity in the presence of inhibitors (GalNAc-T2 [2]; [7]) | Activity in the presence of inhibitors (GalNAc-T2 [2]; [8]) | Activity in the presence of inhibitors (GalNAc-T3; [9]) | Activity in the presence of inhibitors (GalNAc-T3; [10]) | other results
1 | CC(=O)N[C@H]1[C@@H](OCc2ccccc2)O[C@H](CO)[C@@H](O)[C@@H]1O [αGlcNAc-benzyl] | – | – | – | – | – | – | – | inhibition of the glycosylation dependent specificity of GalNAc-T4 (GalNAc-T4 [1]; 10 mM benzyl glycoside): did not inhibit catalytic activity
2 | CC(=O)N[C@H]1[C@@H](OCc2ccccc2)O[C@H](CO)[C@H](O)[C@@H]1O[C@@H]1O[C@H](CO)[C@H](O)[C@H](O)[C@H]1O [Galβ1-3GaINAcα1-bz, Galβ1-3GalNAcα1-benzyl] | significantly inhibited | 4.5 nmol/min/mL | – | – | – | – | – | inhibition of GalNAc-T4 glycopeptide activity compared to GalNAc (GalNAc-T4 [1]; concentration not given): neither Gal nor Galβ1-3GalNAcα1-benzyl produced significant inhibition
3 | OC[C@H]1O[C@H](OCc2ccccc2)[C@@H](O)[C@@H](O)[C@@H]1O [bz-αMan] | – | 6.7 nmol/min/mL | – | – | – | – | – | –
4 | CC(=O)N[C@H]1C(O)O[C@H](CO)[C@@H](O)[C@@H]1O (stereo partly shown) [GlcNAc] | – | – | failed to show significant inhibition | 68 nmol/min/mL | 310 nmol/min/mL | 7 nmol/min/mL | 32 nmol/min/mL | –
5 | C[C@@H]1OC(O)[C@@H](O)[C@H](O)[C@@H]1O (stereo partly shown) [Fuc] | – | – | failed to show significant inhibition | 89 nmol/min/mL | 370 nmol/min/mL | 6.5 nmol/min/mL | 34 nmol/min/mL | –
6 | CC(=O)N[C@H]1C(O)O[C@H](CO)[C@H](O)[C@@H]1O (stereo partly shown) [GalNAc, N-acetylgalactosamine] | – | – | – | 24 nmol/min/mL | 300 nmol/min/mL | 2.5 nmol/min/mL | 35 nmol/min/mL | inhibition of the glycosylation dependent specificity of GalNAc-T4 (GalNAc-T4 [1]; 50 mM sugars (not shown)): approximately 50%; effect on the glycosylation independent activities of GalNAc-T4 [3]: no effect on the general catalytic function of the enzyme; inhibition of the galactosyltransferase activity with Muc2 substrate (GalNAc-T2 [2]; donor UDP-Gal): selectively inhibited; inhibition of the galactosyltransferase activity of GalNAc-T3 (GalNAc-T3; donor UDP-Gal): selectively inhibited; direct binding of GalNAc-T2 to free GalNAc (GalNAc-T2 [4]): could not detect direct binding; direct binding of GalNAc-T4 to free GalNAc (GalNAc-T4 [5]): could not detect direct binding
7 | CC(=O)N[C@H]1[C@@H](OCc2ccccc2)O[C@H](CO)[C@H](O)[C@@H]1O [bz-αGalNAc, α-D-GalNAc-1-benzyl] | significantly inhibited | 5.4 nmol/min/mL | – | – | – | – | – | –
8 | OC[C@H]1O[C@@H](OCc2ccccc2)[C@H](O)[C@@H](O)[C@H]1O [bz-βGal] | significantly inhibited | 4.7 nmol/min/mL | – | – | – | – | – | –
9 | OC[C@H]1OC(O)[C@H](O)[C@@H](O)[C@H]1O (stereo partly shown) [Gal] | – | – | failed to show significant inhibition | 89 nmol/min/mL | 300 nmol/min/mL | 7.3 nmol/min/mL | 33 nmol/min/mL | –
